Assay results reported in patent publication US10759783B2, “Biaryl inhibitors of Bruton'S tyrosine kinase” (BIOGEN MA INC., priority 2013, dated 2020).
pIC50: −log10 of the molar value.

Key:
BTK enzyme = molecular target: T1, BTK enzyme (Homo sapiens, UniProt Q06187); assay: In vitro BTK kinase assay: BTK-POLYGAT-LS assay; assay type: biochemical; details: ATP 10 μM, read-out: IC50 (10uMATP)
T1 construct: purchased Upstate 14-552
Outline: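 Human BTK activity was measured with final 10 μM ATP and 100 nM polyGAT substrate in pH 7.5 Tris buffer with 10 mM MgCl2, DTT, Triton X-100 and casein.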

[1] = molecular target: BTK (phospho-BTK) in human whole blood (Homo sapiens, UniProt Q06187); assay: In vitro PD assay in human whole blood (pBTK assay)
Sequence of BTK (phospho-BTK) in human whole blood (Q06187 whole entry): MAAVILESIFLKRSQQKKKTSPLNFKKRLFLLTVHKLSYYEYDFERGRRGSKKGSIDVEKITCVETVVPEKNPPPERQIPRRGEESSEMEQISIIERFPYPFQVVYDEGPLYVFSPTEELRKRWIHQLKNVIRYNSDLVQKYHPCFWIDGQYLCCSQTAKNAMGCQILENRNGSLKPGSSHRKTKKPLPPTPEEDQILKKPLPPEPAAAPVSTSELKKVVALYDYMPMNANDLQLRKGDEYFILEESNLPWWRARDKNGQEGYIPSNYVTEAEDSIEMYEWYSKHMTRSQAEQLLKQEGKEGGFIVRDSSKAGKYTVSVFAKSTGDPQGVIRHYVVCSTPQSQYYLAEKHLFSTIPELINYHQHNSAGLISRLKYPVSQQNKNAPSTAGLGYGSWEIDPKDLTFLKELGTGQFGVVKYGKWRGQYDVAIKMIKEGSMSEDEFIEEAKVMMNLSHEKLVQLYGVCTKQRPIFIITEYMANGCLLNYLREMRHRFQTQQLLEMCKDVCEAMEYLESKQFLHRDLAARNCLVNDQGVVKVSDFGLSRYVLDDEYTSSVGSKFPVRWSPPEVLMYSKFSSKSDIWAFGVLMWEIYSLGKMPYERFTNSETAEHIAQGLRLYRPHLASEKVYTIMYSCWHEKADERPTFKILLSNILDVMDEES

T1 sequence (Q06187 whole entry): as above

| pIC50 (BTK enzyme) | pIC50 [1] | SMILES |
| --- | --- | --- |
| > 8.00 | > 6.30 | Cc1cc(-c2ccnc(Nc3cnn(C)c3)n2)ccc1CNC(=O)c1ccn(C(C)(C)C)n1 [Example I-252, 1-tert-butyl-N-[[2-methyl-4-[2-[(1-methylpyrazol-4-yl)amino]pyrimidin-4-yl]phenyl]methyl]pyrazole-3-carboxamide] |
| > 8.00 | > 6.30 | CN1CC[C@H](n2cc(Nc3nccc(-c4ccc(CNC(=O)N5CCC(C(C)(C)C)C5)c(C(F)(F)F)c4)n3)cn2)C1 (stereo partly drawn) [Example I-207, 3-(tert-butyl)-N-(4-(2-((1-((S)-1-methylpyrrolidin-3-yl)-1H-pyrazol-4-yl)amino)pyrimidin-4-yl)-2-(trifluoromethyl)benzyl)pyrrolidine-1-carboxamide] |
| > 8.00 | 5.00 to 5.82 | Cc1cc(-c2ccnc(N)n2)ccc1CNC(=O)c1cc2c(s1)CCCC2 [Example I-142, N-(4-(2-aminopyrimidin-4-yl)-2-methylbenzyl)-4,5,6,7-tetrahydrobenzo[b]thiophene-2-carboxamide] |
| > 8.00 | 5.82 to 6.30 | Cc1cc(-c2cc(Nc3cn(C)cn3)ncn2)ccc1CNC(=O)c1cnc(C(C)(C)C)s1 [Example I-65, 2-(tert-butyl)-N-(2-methyl-4-(6-((1-methyl-1H-imidazol-4-yl)amino)pyrimidin-4-yl)benzyl)thiazole-5-carboxamide] |
| > 8.00 | > 6.30 | Cc1cc(-c2cc(Nc3cc4n(n3)CCN(C)C4)ncn2)ccc1CNC(=O)N1CC[C@@H](C(C)(C)C)C1 [Example I-244, (S)-3-(tert-butyl)-N-(2-methyl-4-(6-((5-methyl-4,5,6,7-tetrahydropyrazolo[1,5-a]pyrazin-2-yl)amino)pyrimidin-4-yl)benzyl)pyrrolidine-1-carboxamide] |
| > 8.00 | > 6.30 | CC(C)OC1CN(C(=O)NCc2ccc(-c3ccnc(Nc4cnn([C@@H]5CCOC5)c4)n3)cc2C(F)(F)F)C1 [Example I-314, 3-isopropoxy-N-[[4-[2-[[1-[(3R)-tetrahydrofuran-3-yl]pyrazol-4-yl]amino]pyrimidin-4-yl]-2-(trifluoromethyl)phenyl]methyl]azetidine-1-carboxamide] |
| > 8.00 | 5.82 to 6.30 | CCN1CCn2nc(Nc3nccc(-c4ccc(CNC(=O)c5cnc(C(C)(C)C)s5)c(C)c4)n3)cc2C1 [Example I-56, 2-(tert-butyl)-N-(4-(2-((5-ethyl-4,5,6,7-tetrahydropyrazolo[1,5-a]pyrazin-2-yl)amino)pyrimidin-4-yl)-2-methylbenzyl)thiazole-5-carboxamide] |
| > 8.00 | 5.82 to 6.30 | Cc1cc(-c2ccnc(Nc3cc4n(n3)CCNC4)n2)ccc1CNC(=O)c1cnc(C(C)(C)C)s1 [Example I-54, 2-(tert-butyl)-N-(2-methyl-4-(2-((4,5,6,7-tetrahydropyrazolo[1,5-a]pyrazin-2-yl)amino)pyrimidin-4-yl)benzyl)thiazole-5-carboxamide] |
| > 8.00 | > 6.30 | Cc1cc(-c2cc(Nc3cc4c(cn3)CN(C)CC4)ncn2)ccc1CNC(=O)c1cnc(C(C)(C)C)s1 [Example I-269, 2-tert-butyl-N-[[2-methyl-4-[6-[(7-methyl-6,8-dihydro-5H-2,7-naphthyridin-3-yl)amino]pyrimidin-4-yl]phenyl]methyl]thiazole-5-carboxamide] |
| > 8.00 | > 6.30 | CCn1cc(Nc2nccc(-c3ccc4c(c3)CCCCC4NC(=O)N3CCC(C(C)C)C3)n2)cn1 (stereo not drawn) [Example I-341, N-[2-[2-[(1-ethylpyrazol-4-yl)amino]pyrimidin-4-yl]-6,7,8,9-tetrahydro-5H-benzo[7]annulen-5-yl]-3-isopropyl-pyrrolidine-1-carboxamide] |
| 7.00 to 8.00 | 5.00 to 5.82 | Cc1cc(-c2ccnc(Nc3cnn(C)c3)n2)ccc1CNC(=O)N1CCOC(C(C)C)C1 (stereo not drawn) [Example I-24, 2-isopropyl-N-(2-methyl-4-(2-((1-methyl-1H-pyrazol-4-yl)amino)pyrimidin-4-yl)benzyl)morpholine-4-carboxamide] |
| > 8.00 | > 6.30 | Cc1cc(-c2ccnc(Nc3cnn(C[C@@H]4CNCCO4)c3)n2)ccc1CNC(=O)c1cnc(C(C)(C)C)s1 [Example I-126, (S)-2-(tert-butyl)-N-(2-methyl-4-(2-((1-(morpholin-2-ylmethyl)-1H-pyrazol-4-yl)amino)pyrimidin-4-yl)benzyl)thiazole-5-carboxamide] |
| > 8.00 | > 6.30 | Cn1cc(Nc2nccc(-c3ccc(CNC(=O)c4cnn(C(C)(C)C)c4)c(C#N)c3)n2)cn1 [Example I-211, 1-(tert-butyl)-N-(2-cyano-4-(2-((1-methyl-1H-pyrazol-4-yl)amino)pyrimidin-4-yl)benzyl)-1H-pyrazole-4-carboxamide] |
| > 8.00 | > 6.30 | Cc1cc(-c2cc(Nc3cc4n(n3)CCC4)ncn2)ccc1CNC(=O)c1cnn(C(C)(C)C)c1 [Example I-193, 1-(tert-butyl)-N-(4-(6-((5,6-dihydro-4H-pyrrolo[1,2-b]pyrazol-2-yl)amino)pyrimidin-4-yl)-2-methylbenzyl)-1H-pyrazole-4-carboxamide] |
| > 8.00 | > 6.30 | Cc1cc(-c2ccnc(Nc3cnn(C4CCN(C)CC4)c3)n2)ccc1CNC(=O)c1cnn(C(C)(C)C)c1 [Example I-197, 1-(tert-butyl)-N-(2-methyl-4-(2-((1-(1-methylpiperidin-4-yl)-1H-pyrazol-4-yl)amino)pyrimidin-4-yl)benzyl)-1H-pyrazole-4-carboxamide] |
| > 8.00 | > 6.30 | CC(C)OC1CN(C(=O)NC2CCCOc3cc(-c4ccnc(Nc5cnn(C)c5)n4)ccc32)C1 (stereo not drawn) [Example I-335, 3-isopropoxy-N-[8-[2-[(1-methylpyrazol-4-yl)amino]pyrimidin-4-yl]-2,3,4,5-tetrahydro-1-benzoxepin-5-yl]azetidine-1-carboxamide] |
| > 8.00 | > 6.30 | Cc1cc(-c2ccnc(Nc3cnn(C4CCN(C)CC4)c3)n2)ccc1CNC(=O)N1CC(OC(C)C)C1 [Example I-219, 3-isopropoxy-N-(2-methyl-4-(2-((1-(1-methylpiperidin-4-yl)-1H-pyrazol-4-yl)amino)pyrimidin-4-yl)benzyl)azetidine-1-carboxamide] |

| SMILES | pIC50 (BTK enzyme) | pIC50 [1] |
| --- | --- | --- |
| COCCn1cc(Nc2nccc(-c3ccc(CNC(=O)N4CC(OC(C)(C)C)C4)c(C(F)(F)F)c3)n2)cn1 [Example I-204, 3-(tert-butoxy)-N-(4-(2-((1-(2-methoxyethyl)-1H-pyrazol-4-yl)amino)pyrimidin-4-yl)-2-(trifluoromethyl)benzyl)azetidine-1-carboxamide] | > 8.00 | > 6.30 |
| CC(C)(C)OC1CN(C(=O)NC2CCCCc3cc(-c4ccnc(Nc5cnn(C6CCOCC6)c5)n4)ccc32)C1 (stereo not drawn) [Example I-179, 3-(tert-butoxy)-N-(2-(2-((1-(tetrahydro-2H-pyran-4-yl)-1H-pyrazol-4-yl)amino)pyrimidin-4-yl)-6,7,8,9-tetrahydro-5H-benzo[7]annulen-5-yl)azetidine-1-carboxamide] | > 8.00 | > 6.30 |
| Cn1cc(Nc2nccc(-c3ccc4c(c3)OCCCC4NC(=O)N3CC(OC(C)(C)C)C3)n2)cn1 (stereo not drawn) [Example I-189, 3-(tert-butoxy)-N-(8-(2-((1-methyl-1H-pyrazol-4-yl)amino)pyrimidin-4-yl)-2,3,4,5-tetrahydrobenzo[b]oxepin-5-yl)azetidine-1-carboxamide] | > 8.00 | > 6.30 |
| COCCc1cc(-c2ccnc(Nc3cnn(C)c3)n2)ccc1CNC(=O)N1CC(OC(C)(C)C)C1 [Example I-319, 3-tert-butoxy-N-[[2-(2-methoxyethyl)-4-[2-[(1-methylpyrazol-4-yl)amino]pyrimidin-4-yl]phenyl]methyl]azetidine-1-carboxamide] | > 8.00 | > 6.30 |
